Key:
[1] = target: T1, CFTR-mediated transepithelial chloride transport in primary human bronchial epithelial cells from a ΔF508 homozygous CF donor (Homo sapiens, UniProt P13569, DEL508-508); assay: TECC24 recording of CFTR-mediated transepithelial chloride transport in CF-HBE cells (AUC fold over DMSO); format: cell-based; conditions: test agent 10 μM, 48 hours incubation, AUC of forskolin-stimulated IEQ relative to DMSO
T1 construct: Primary human bronchial epithelial cells from a ΔF508 homozygous CF donor; host or cells: primary CF-HBE cells, ΔF508 homozygous donor
T1 sequence (P13569 with tags, fused parts or gaps DEL508-508): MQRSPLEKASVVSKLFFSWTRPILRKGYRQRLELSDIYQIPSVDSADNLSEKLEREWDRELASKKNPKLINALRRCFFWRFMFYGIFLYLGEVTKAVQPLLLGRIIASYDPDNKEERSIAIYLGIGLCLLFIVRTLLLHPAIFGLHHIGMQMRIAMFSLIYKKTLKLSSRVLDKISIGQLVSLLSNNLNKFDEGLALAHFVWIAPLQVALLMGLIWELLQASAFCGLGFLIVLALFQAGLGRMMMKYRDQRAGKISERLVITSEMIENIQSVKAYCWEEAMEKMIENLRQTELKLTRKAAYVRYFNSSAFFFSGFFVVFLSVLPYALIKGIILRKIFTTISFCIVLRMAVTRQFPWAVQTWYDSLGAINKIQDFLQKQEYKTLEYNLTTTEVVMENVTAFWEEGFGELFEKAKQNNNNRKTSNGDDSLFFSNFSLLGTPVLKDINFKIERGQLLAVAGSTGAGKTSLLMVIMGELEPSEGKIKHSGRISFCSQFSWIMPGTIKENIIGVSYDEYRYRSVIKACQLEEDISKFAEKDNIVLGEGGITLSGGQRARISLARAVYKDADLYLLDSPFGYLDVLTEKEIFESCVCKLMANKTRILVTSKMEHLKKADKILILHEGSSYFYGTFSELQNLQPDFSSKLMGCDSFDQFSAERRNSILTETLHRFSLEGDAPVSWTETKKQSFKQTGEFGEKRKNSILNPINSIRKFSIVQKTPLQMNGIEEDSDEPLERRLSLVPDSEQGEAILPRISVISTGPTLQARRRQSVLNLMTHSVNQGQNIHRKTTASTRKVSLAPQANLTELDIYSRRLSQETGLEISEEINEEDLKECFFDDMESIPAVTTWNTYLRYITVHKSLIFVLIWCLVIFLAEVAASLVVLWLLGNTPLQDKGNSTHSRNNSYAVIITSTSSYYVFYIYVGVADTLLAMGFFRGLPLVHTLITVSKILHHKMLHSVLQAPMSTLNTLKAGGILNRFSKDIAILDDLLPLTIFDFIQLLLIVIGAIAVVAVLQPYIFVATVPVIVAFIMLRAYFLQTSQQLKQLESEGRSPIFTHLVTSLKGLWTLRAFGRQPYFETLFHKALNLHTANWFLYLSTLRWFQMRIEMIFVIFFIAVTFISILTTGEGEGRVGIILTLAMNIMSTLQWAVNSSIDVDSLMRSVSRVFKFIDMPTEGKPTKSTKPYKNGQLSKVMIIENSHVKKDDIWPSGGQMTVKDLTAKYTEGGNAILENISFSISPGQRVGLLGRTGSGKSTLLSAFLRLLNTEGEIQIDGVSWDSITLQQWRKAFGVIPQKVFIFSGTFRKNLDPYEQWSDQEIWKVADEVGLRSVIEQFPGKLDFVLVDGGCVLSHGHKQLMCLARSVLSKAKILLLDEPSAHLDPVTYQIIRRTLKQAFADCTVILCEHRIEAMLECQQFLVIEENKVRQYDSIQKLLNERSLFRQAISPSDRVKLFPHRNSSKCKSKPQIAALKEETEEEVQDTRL
Summary of the method: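 Equivalent Cl⁻ current was derived from transepithelial voltage and resistance, and its AUC from forskolin (10 μM) to CFTRinh-172 (20 μM) was divided by the DMSO AUC. Benzamil 10 μM blocked ENaC. Cells were ΔF508-homozygous primary bronchial epithelia pretreated 48 h at 36.5 °C in IL-13 medium.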

[2] = target: T2, human Cystic Fibrosis Transmembrane Conductance Regulator (CFTR) harboring the ΔF508 mutation (Homo sapiens, UniProt P13569, DEL508-508); assay: H441 cell ΔF508-CFTR-HRP cell surface assay (Emax and EC50); format: cell-based; conditions: for Emax: NCI-H441, NA = Not active
T2 construct: expressed in transfected cells; host or cells: H441 carcinoma line (G418-selected)
T2 sequence (P13569 with tags, fused parts or gaps DEL508-508): as above
Summary of the method: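 H441 and 41o- bronchial epithelial cells expressing ΔF508-CFTR with an extracellular-loop-4 HRP tag were treated with a 15-point compound series (24.5–0.001 μM) for two nights, H441 at 27° C, 41o- at 37° C with 0.0005 mg/ml doxycycline. Surface HRP luminescence read; % of maximum VX809 signal and EC50 derived.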

| Compound | TECC24 AUC fold over DMSO @10 μM [1] | EC50 [2] [nM] | Emax [2] [%] |
| --- | --- | --- | --- |
| CC(C)(C)C[C@H](NC(=O)c1ccc2ccccc2c1OCc1ccc(SC(F)(F)F)cc1)C(=O)O [Example 115, (S)-4,4-dimethyl-2-(1-((4-((trifluoromethyl)thio)benzyl)oxy)-2-naphthamido)pentanoic Acid] | C (“C” refers to AUC @10 uM <4) | 1100 | 84 |
| CC1(C(NC(=O)c2ccc3cc(F)ccc3c2OCc2ccc(S(F)(F)(F)(F)F)cc2)C(=O)O)CCCCC1 (stereo not drawn) [Example 50, 2-(6-fluoro-1-((4-(pentafluoro-16-sulfanyl)benzyl)oxy)-2-naphthamido)-2-(1-methylcyclohexyl)acetic Acid] | C (“C” refers to AUC @10 uM <4) | 400 | 57.8 |
| CC(C)(SCC1CC1(F)F)[C@H](NC(=O)c1ccc2ccccc2c1OCC1CCCCC1)C(=O)O (stereo partly drawn) [Example 165, (2R)-2-(1-(cyclohexylmethoxy)-2-naphthamido)-3-(((2,2-difluorocyclopropyl)methyl)thio)-3-methylbutanoic Acid] | C (“C” refers to AUC @10 uM <4) | 3400 | 113 |
| CC1(C(NC(=O)c2ccc3ccccc3c2OCc2ccc(S(=O)(=O)C(F)(F)F)cc2)C(=O)O)CCCCC1 (stereo not drawn) [Example 77, 2-(1-methylcyclohexyl)-2-(1-((4-((trifluoromethyl)sulfonyl)benzyl)oxy)-2-naphthamido)acetic Acid] | C (“C” refers to AUC @10 uM <4) | 700 | 78.9 |
| CCC(C)(C)[C@H](NC(=O)c1ccc2ccccc2c1OCc1ccc(SC(F)(F)F)cc1)C(=O)O [Example 55, (S)-3,3-dimethyl-2-(1-((4-((trifluoromethyl)thio)benzyl)oxy)-2-naphthamido)pentanoic Acid] | B (“B” refers to AUC @10 uM between 4-6) | 600 | 115 |
| COC(=O)c1ccc(COc2c(C(=O)N[C@H](C(=O)O)C(C)(C)C)ccc3ccccc23)cc1 [Example 28, (S)-2-(1-((4-(methoxycarbonyl)benzyl)oxy)-2-naphthamido)-3,3-dimethylbutanoic Acid] | C (“C” refers to AUC @10 uM <4) | 4900 | 70.2 |
| COC(C)(C)[C@H](NC(=O)c1ccc2ccccc2c1OCc1ccc(C(F)(F)F)cc1)C(=O)O [Example 139, (S)-3-methoxy-3-methyl-2-(1-((4-(trifluoromethyl)benzyl)oxy)-2-naphthamido)butanoic Acid] | C (“C” refers to AUC @10 uM <4) | 1400 | 118 |
| CC(C)(SCC1CC1(F)F)[C@H](NC(=O)c1ccc2ccccc2c1OCc1ccc(SC(F)(F)F)cc1)C(=O)O (stereo partly drawn) [Example 164, (2R)-3-(((2,2-difluorocyclopropyl)methyl)thio)-3-methyl-2-(1-((4-((trifluoromethyl)thio)benzyl)oxy)-2-naphthamido)butanoic Acid] | C (“C” refers to AUC @10 uM <4) | 600 | 112 |
| CC(C)(SC1CCCC1)[C@H](NC(=O)c1ccc2ccccc2c1OCc1ccc(C(F)(F)F)cc1)C(=O)O [Example 168, (R)-3-(cyclopentylthio)-3-methyl-2-(1-((4-(trifluoromethyl)benzyl)oxy)-2-naphthamido)butanoic Acid] | B (“B” refers to AUC @10 uM between 4-6) | 800 | 157 |
| CC(C)(C)[C@H](NC(=O)c1ccc2ccccc2c1OCC1CCCCC1)C(=O)O [Example 72, (S)-2-(1-(cyclohexylmethoxy)-2-naphthamido)-3,3-dimethylbutanoic Acid] | C (“C” refers to AUC @10 uM <4) | 3700 | 144 |
| CC(C)(C)[C@H](NC(=O)c1ccc2cc(F)ccc2c1OCC1CCCCC1)C(=O)O [Example 45, (S)-2-(1-(cyclohexylmethoxy)-6-fluoro-2-naphthamido)-3,3-dimethylbutanoic Acid] | C (“C” refers to AUC @10 uM <4) | 1800 | 94.7 |

Next, values leading:

| TECC24 AUC fold over DMSO @10 μM [1] | EC50 [2] [nM] | Emax [2] [%] | Compound |
| --- | --- | --- | --- |
| A (“A” refers to AUC @10 uM >6) | 1000 | 281 | CCC(C)(C)[C@H](NC(=O)c1ccc2ccc(C)cc2c1OCCCC(C)C)C(=O)O [Example 294, 3,3-Dimethyl-2-{[7-methyl-1-(4-methyl-pentyloxy)-naphthalene-2-carbonyl]-amino}-pentanoic Acid] |
| A (“A” refers to AUC @10 uM >6) | 1100 | 132 | CC(C)(C)[C@@H](NC(=O)c1ccc2ccc(Cl)cc2c1OCc1ccc(C(F)(F)F)cc1)C(=O)O [Example 262, (2R)-2-[[7-chloro-1-[[4-(trifluoromethyl)phenyl]methoxy]naphthalene-2-carbonyl]amino]-3,3-dimethyl-butanoic Acid] |
| A (“A” refers to AUC @10 uM >6) | 700 | 246 | CCC(C)(C)[C@H](NC(=O)c1ccc2ccc(C)cc2c1OCC1CCCCC1)C(=O)O [Example 281, (S)-2-(1-(cyclohexylmethoxy)-7-methyl-2-naphthamido)-3,3-dimethylpentanoic Acid] |
| B (“B” refers to AUC @10 uM between 4-6) | 800 | 112 | C=CC(C)(C)C(NC(=O)c1ccc2ccccc2c1OCc1ccc(C(F)(F)F)cc1)C(=O)O (stereo not drawn) [Example 223, 3,3-dimethyl-2-[[1-[[4-(trifluoromethyl)phenyl]methoxy]naphthalene-2-carbonyl]amino]pent-4-enoic Acid] |
| B (“B” refers to AUC @10 uM between 4-6) | 700 | 164 | CC(C)(S[C@@H]1C[C@@H]2CC[C@H]1C2)[C@H](NC(=O)c1ccc2ccccc2c1OCc1ccc(C(F)(F)F)cc1)C(=O)O [Example 173, (R)-3-(((1S,2R,4R)-bicyclo[2.2.1]heptan-2-yl)thio)-3-methyl-2-(1-((4-(trifluoromethyl)benzyl)oxy)-2-naphthamido)butanoic Acid] |
| C (“C” refers to AUC @10 uM <4) | 800 | 101 | O=C(N[C@H](C(=O)O)C(c1ccccc1)c1ccccc1)c1ccc2cc(F)ccc2c1OCC1CCCCC1 [Example 203] |
| A (“A” refers to AUC @10 uM >6) | 200 | 322 | CCC(C)(C)C(NC(=O)c1ccc2ccc(C)cc2c1OCc1ccc(C(F)(F)F)cc1)C(=O)O (stereo not drawn) [Example 275, 3,3-Dimethyl-2-{[7-methyl-1-(4-trifluoromethyl-benzyloxy)-naphthalene-2-carbonyl]-amino}-pentanoic Acid] |
| A (“A” refers to AUC @10 uM >6) | 12200 | 97 | CCC(C)(C)[C@H](NC(=O)c1ccc2cc(C)ccc2c1OCc1ccc(C(F)(F)F)cc1)C(=O)O [Example 225, (2S)-3,3-dimethyl-2-[[6-methyl-1-[[4-(trifluoromethyl)phenyl]methoxy]naphthalene-2-carbonyl]amino]pentanoic Acid] |
| A (“A” refers to AUC @10 uM >6) | 500 | 408 | COc1ccc2ccc(C(=O)N[C@H](C(=O)O)C(C)(C)C)c(OCc3ccc(C(F)(F)F)cc3)c2c1 [Example 308, (S)-2-(7-methoxy-1-((4-(trifluoromethyl)benzyl)oxy)-2-naphthamido)-3,3-dimethylbutanoic Acid] |
| A (“A” refers to AUC @10 uM >6) | 400 | 233 | CCC1([C@H](NC(=O)c2ccc3ccc(F)cc3c2OCc2ccc(C(F)(F)F)cc2)C(=O)O)CCCC1 [Example 314, (S)-2-(1-ethylcyclopentyl)-2-(7-fluoro-1-((4-(trifluoromethyl)benzyl)oxy)-2-naphthamido)acetic Acid] |
| A (“A” refers to AUC @10 uM >6) | 300 | 309 | CCC(C)(C)C(NC(=O)c1ccc2ccc(C)cc2c1OCc1ccc(OC(F)(F)F)cc1)C(=O)O (stereo not drawn) [Example 276, 3,3-dimethyl-2-(7-methyl-1-((4-(trifluoromethoxy)benzyl)oxy)-2-naphthamido)pentanoic Acid] |
| B (“B” refers to AUC @10 uM between 4-6) | 1000 | 130 | CC(C)(C)[C@H](NC(=O)c1ccc2c(F)cccc2c1OCc1ccc(C(F)(F)F)cc1)C(=O)O [Example 236, (2S)-2-[[5-fluoro-1-[[4-(trifluoromethyl)phenyl]methoxy]naphthalene-2-carbonyl]amino]-3,3-dimethyl-butanoic Acid] |
| A (“A” refers to AUC @10 uM >6) | 100 | 353 | CC(C)(C)[C@H](NC(=O)c1ccc2ccc(Cl)cc2c1OCc1ccc(C(F)(F)F)cc1)C(=O)O [Example 286, (S)-2-(7-chloro-1-((4-(trifluoromethyl)benzyl)oxy)-2-naphthamido)-3,3-dimethylbutanoic Acid] |
| C (“C” refers to AUC @10 uM <4) | 1300 | 160 | C#CC(C)(C)C(NC(=O)c1ccc2ccccc2c1OCc1ccc(SC(F)(F)F)cc1)C(=O)O (stereo not drawn) [Example 227, 3,3-dimethyl-2-[[1-[[4-(trifluoromethylsulfanyl)phenyl]methoxy]naphthalene-2-carbonyl]amino]pent-4-ynoic Acid] |

Source: patent publication US12630498B2 (Genzyme Corporation, priority 2019, dated 2026)
